{"source": "ChEMBL document CHEMBL4665648", "about": "“Potent and selective inhibitors of receptor-interacting protein kinase 1 that lack an aromatic back pocket group” (Bioorg Med Chem Lett, 2019)", "key": {"[1]": {"target": "Calcium/calmodulin-dependent protein kinase kinase 2 (Homo sapiens) (UniProt Q96RR4)", "sequence (Q96RR4 2-588 limits assumed)": "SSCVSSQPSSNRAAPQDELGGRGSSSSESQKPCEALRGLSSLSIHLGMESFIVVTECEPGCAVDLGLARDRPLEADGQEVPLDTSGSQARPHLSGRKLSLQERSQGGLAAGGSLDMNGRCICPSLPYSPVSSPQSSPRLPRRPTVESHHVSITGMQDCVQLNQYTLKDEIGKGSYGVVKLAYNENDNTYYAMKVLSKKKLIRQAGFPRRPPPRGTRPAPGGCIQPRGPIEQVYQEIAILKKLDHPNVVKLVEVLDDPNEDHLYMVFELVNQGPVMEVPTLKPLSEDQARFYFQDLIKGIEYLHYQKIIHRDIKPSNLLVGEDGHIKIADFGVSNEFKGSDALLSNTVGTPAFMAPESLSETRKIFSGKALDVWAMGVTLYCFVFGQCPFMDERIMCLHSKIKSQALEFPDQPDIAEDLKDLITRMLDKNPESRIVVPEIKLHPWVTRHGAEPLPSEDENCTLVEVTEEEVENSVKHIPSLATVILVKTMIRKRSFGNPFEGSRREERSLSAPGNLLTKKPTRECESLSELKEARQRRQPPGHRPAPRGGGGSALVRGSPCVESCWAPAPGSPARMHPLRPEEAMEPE", "test": "Inhibition of tracer 236 binding to recombinant human GST-tagged full length CAMKK2 expressed in baculovirus expression system at 10 uM incubated for 60 mins by Lanthascreen assay relative to control"}, "[2]": {"target": "RAC-beta serine/threonine-protein kinase (Homo sapiens) (UniProt P31751)", "test": "Inhibition of recombinant human His-tagged full length AKT2 expressed in baculovirus expression system using Ser/Thr 06 as substrate at 10 uM incubated for 60 mins by Z'-Lyte assay relative to control"}, "[3]": {"target": "Casein kinase I isoform epsilon (Homo sapiens) (UniProt P49674)", "test": "Inhibition of recombinant human His-tagged full length CK1epsilon expressed in baculovirus expression system using Ser/Thr 11 as substrate at 10 uM incubated for 60 mins by Z'-Lyte assay relative to control"}, "[4]": {"target": "Dual specificity protein kinase CLK3 (Homo sapiens) (UniProt P49761)", "test": "Inhibition of recombinant human GST-tagged full length CLK3 expressed in baculovirus expression system using Ser/Thr 18 as substrate at 10 uM incubated for 60 mins by Z'-Lyte assay relative to control"}, "[5]": {"target": "Receptor tyrosine-protein kinase erbB-2 (Homo sapiens) (UniProt P04626)", "test": "Inhibition of recombinant human His-tagged ERBB2 (676 to 1255 residues) expressed in baculovirus expression system using Tyr 06 as substrate at 10 uM incubated for 60 mins by Z'-Lyte assay relative to control"}, "[6]": {"target": "Fibroblast growth factor receptor 1 (Homo sapiens) (UniProt P11362)", "sequence (P11362 22-822 limits assumed)": "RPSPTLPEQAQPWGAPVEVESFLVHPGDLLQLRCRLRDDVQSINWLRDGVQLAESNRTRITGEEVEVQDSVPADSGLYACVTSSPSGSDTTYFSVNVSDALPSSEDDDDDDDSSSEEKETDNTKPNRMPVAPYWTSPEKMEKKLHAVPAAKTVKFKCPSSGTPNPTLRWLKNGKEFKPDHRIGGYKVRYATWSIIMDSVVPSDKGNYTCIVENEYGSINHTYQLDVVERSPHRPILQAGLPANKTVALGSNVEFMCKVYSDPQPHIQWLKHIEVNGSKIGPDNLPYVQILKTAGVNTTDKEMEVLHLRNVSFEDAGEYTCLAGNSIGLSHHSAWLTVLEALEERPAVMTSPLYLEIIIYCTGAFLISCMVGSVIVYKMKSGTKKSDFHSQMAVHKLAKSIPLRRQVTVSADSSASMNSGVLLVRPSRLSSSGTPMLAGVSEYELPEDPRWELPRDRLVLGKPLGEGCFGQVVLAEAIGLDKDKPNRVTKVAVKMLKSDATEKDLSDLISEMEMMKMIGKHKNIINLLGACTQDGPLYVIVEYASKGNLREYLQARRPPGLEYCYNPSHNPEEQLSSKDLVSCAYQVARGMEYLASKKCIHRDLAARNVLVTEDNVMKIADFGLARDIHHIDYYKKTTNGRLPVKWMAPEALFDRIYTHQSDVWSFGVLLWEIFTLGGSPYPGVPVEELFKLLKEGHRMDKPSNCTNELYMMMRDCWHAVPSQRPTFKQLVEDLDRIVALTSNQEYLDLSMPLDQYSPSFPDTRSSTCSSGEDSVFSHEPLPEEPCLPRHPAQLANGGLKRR", "test": "Inhibition of recombinant human His-tagged FGFR1 (308 to 731 residues) expressed in baculovirus expression system using Tyr 01 as substrate at 10 uM incubated for 60 mins by Z'-Lyte assay relative to control"}, "[7]": {"target": "Tyrosine-protein kinase FRK (Homo sapiens) (UniProt P42685)", "test": "Inhibition of recombinant human GST-tagged full length FRK expressed in baculovirus expression system using Tyr 01 as substrate at 10 uM incubated for 60 mins by Z'-Lyte assay relative to control"}, "[8]": {"target": "Beta-adrenergic receptor kinase 1 (Homo sapiens) (UniProt P25098)", "sequence (P25098 whole entry)": "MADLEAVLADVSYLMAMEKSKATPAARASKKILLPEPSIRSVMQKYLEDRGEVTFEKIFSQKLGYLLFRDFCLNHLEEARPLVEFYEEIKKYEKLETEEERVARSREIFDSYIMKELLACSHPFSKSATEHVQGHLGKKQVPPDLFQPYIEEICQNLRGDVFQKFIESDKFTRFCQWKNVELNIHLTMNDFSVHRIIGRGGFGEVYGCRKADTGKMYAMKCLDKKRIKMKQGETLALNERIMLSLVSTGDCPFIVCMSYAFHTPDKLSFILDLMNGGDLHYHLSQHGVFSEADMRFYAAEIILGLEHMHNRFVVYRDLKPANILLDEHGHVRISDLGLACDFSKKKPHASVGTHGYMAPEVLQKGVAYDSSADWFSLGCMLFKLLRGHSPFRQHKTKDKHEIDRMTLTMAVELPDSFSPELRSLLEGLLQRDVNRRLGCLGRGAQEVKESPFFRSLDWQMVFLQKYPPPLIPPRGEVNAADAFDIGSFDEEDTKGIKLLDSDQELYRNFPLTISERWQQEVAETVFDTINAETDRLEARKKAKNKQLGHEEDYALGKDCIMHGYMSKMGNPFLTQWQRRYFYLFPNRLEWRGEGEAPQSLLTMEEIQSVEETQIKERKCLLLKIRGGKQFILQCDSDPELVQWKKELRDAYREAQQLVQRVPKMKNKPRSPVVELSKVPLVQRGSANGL", "test": "Inhibition of recombinant human His-tagged full length GRK2 expressed in baculovirus expression system using Ser/Thr 16 as substrate at 10 uM incubated for 60 mins by Z'-Lyte assay relative to control"}, "[9]": {"target": "Inhibitor of nuclear factor kappa-B kinase subunit beta (Homo sapiens) (UniProt O14920)", "sequence (O14920 whole entry)": "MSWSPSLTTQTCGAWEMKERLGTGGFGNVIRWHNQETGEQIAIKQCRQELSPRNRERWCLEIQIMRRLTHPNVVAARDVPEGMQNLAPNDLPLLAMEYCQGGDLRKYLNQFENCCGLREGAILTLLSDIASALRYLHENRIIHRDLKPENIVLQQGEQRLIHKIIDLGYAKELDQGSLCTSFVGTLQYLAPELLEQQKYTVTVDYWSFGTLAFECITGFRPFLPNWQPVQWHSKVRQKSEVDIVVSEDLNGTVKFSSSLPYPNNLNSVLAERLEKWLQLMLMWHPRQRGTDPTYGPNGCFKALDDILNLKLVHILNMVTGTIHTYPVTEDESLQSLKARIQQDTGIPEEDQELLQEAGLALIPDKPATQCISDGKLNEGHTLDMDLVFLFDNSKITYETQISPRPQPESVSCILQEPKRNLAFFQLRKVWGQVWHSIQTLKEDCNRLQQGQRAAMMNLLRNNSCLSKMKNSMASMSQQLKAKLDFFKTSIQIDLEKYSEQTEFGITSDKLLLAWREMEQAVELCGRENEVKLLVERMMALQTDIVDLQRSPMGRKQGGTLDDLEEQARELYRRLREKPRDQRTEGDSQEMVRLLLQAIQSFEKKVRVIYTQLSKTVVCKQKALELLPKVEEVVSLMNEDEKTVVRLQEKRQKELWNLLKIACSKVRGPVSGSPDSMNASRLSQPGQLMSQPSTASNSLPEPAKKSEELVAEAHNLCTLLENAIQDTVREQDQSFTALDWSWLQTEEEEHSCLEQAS", "test": "Inhibition of recombinant human GST-tagged full length IKKbeta expressed in baculovirus expression system using Ser/Thr 05 as substrate at 10 uM incubated for 60 mins by Z'-Lyte assay relative to control"}, "[10]": {"target": "Tyrosine-protein kinase JAK1 (Homo sapiens) (UniProt P23458)", "sequence (P23458 whole entry, the tested form may be a part)": "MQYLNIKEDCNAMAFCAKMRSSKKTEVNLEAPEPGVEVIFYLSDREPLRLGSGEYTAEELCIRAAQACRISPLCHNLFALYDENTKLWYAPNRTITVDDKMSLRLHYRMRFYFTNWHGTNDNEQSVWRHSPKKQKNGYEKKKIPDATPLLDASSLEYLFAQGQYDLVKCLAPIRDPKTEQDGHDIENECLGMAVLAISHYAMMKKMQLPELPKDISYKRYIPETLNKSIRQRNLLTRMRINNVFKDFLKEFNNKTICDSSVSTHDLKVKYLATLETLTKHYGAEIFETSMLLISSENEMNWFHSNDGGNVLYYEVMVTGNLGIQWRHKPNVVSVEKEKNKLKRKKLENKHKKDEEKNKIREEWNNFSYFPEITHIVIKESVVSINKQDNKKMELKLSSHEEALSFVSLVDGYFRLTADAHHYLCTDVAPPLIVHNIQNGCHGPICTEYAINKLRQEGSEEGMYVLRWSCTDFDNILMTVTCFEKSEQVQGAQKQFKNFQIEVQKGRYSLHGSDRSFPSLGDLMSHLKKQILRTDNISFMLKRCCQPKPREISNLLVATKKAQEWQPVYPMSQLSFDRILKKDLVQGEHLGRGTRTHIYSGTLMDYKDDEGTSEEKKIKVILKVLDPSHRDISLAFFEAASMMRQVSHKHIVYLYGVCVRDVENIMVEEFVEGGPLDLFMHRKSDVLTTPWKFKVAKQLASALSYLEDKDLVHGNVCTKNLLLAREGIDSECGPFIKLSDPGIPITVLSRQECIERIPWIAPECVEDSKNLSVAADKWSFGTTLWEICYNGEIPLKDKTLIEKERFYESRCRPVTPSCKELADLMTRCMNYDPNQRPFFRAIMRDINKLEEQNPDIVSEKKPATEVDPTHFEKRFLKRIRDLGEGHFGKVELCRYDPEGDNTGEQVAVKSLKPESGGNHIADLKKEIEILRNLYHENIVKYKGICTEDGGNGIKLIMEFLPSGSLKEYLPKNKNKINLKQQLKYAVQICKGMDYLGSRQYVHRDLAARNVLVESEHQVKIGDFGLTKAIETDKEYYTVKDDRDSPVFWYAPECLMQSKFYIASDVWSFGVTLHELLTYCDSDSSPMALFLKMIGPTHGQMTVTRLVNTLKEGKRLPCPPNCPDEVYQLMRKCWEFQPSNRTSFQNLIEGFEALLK", "test": "Inhibition of recombinant human GST-tagged JAK1 (866 to 1154 residues) expressed in baculovirus expression system using Tyr 06 as substrate at 10 uM incubated for 60 mins by Z'-lyte assay relative to control"}, "[11]": {"target": "Mast/stem cell growth factor receptor Kit (Homo sapiens) (UniProt P10721)", "sequence (P10721 whole entry, the tested form may be a part)": "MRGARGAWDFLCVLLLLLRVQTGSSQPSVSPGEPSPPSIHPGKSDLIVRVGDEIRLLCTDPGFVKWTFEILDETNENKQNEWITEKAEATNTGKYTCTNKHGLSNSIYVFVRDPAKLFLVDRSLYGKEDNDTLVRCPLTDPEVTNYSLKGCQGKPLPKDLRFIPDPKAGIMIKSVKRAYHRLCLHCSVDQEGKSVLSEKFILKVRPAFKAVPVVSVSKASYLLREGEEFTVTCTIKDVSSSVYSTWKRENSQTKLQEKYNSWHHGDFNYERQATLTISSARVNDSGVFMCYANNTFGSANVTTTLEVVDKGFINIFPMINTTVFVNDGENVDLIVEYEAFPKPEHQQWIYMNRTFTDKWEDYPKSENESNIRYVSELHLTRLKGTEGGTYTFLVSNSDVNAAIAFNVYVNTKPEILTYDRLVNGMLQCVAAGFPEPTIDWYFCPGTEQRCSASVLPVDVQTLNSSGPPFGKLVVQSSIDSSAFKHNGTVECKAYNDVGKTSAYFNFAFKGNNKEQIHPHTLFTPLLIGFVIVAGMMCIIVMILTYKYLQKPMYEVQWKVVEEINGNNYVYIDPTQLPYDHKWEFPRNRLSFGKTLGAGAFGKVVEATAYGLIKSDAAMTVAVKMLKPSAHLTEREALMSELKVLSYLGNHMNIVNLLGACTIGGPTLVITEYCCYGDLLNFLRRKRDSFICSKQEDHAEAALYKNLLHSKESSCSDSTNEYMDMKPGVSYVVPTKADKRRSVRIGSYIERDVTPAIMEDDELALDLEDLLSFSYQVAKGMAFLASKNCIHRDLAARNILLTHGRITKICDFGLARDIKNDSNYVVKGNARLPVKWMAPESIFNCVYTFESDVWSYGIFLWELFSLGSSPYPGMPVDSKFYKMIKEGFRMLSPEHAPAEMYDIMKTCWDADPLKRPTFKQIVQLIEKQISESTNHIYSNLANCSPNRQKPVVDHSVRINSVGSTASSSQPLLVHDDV", "test": "Inhibition of recombinant human His-tagged KIT (544 to 976 residues) expressed in baculovirus expression system using Tyr 01 as substrate at 10 uM incubated for 60 mins by Z'-lyte assay relative to control"}, "[12]": {"target": "LIM domain kinase 1 (Homo sapiens) (UniProt P53667)", "test": "Inhibition of tracer 236 binding to recombinant human His-tagged LIMK1 (285 to 638 residues) expressed in baculovirus expression system at 10 uM incubated for 60 mins by Lanthascreen assay relative to control"}, "[13]": {"target": "Leucine-rich repeat serine/threonine-protein kinase 2 (Homo sapiens) (UniProt Q5S007)", "test": "Inhibition of recombinant human GST-tagged LRRK2 (970 to 2527 residues) expressed in baculovirus expression system using LRRKtide as substrate at 10 uM incubated for 60 mins by Adapta assay relative to control"}, "[14]": {"target": "Tyrosine-protein kinase Lyn (Homo sapiens) (UniProt P07948)", "test": "Inhibition of LYN (unknown origin) by selectscreen kinase assay", "details": "dose 10.0 µM, time 60.0 min"}, "[15]": {"target": "MAP kinase-activated protein kinase 2 (Homo sapiens) (UniProt P49137)", "test": "Inhibition of recombinant human His-tagged full length MAPKAPK2 expressed in Escherichia coli expression system using Ser/Thr 04 as substrate at 10 uM incubated for 60 mins by Z'-lyte assay relative to control"}, "[16]": {"target": "Serine/threonine-protein kinase 24 (Homo sapiens) (UniProt Q9Y6E0)", "test": "Inhibition of recombinant human GST-tagged full length MST3 expressed in baculovirus expression system using Ser/Thr 07 as substrate at 10 uM incubated for 60 mins by Z'-lyte assay relative to control"}, "[17]": {"target": "Protein kinase C epsilon type (Homo sapiens) (UniProt Q02156)", "test": "Inhibition of recombinant human GST-tagged full length PKCepsilon expressed in insect expression system using Ser/Thr 07 as substrate at 10 uM incubated for 60 mins by Z'-lyte assay relative to control"}, "[18]": {"target": "Protein kinase C theta type (Homo sapiens) (UniProt Q04759)", "test": "Inhibition of recombinant human His-tagged full length PKCtheta expressed in baculovirus expression system using Ser/Thr 07 as substrate at 10 uM incubated for 60 mins by Z'-lyte assay relative to control"}, "[19]": {"target": "Rho-associated protein kinase 2 (Homo sapiens) (UniProt O75116)", "test": "Inhibition of recombinant human N-terminal GST-tagged ROCK2 (1 to 552 residues) expressed in baculovirus expression system using Ser/Thr 13 as substrate at 10 uM incubated for 60 mins by Z'-Lyte assay relative to control"}, "[20]": {"target": "Proto-oncogene tyrosine-protein kinase receptor Ret (Homo sapiens) (UniProt P07949)", "test": "Inhibition of recombinant human GST-tagged full length RET (658 to 1114 residues) expressed in baculovirus expression system using Tyr 02 as substrate at 10 uM incubated for 60 mins by Z'-Lyte assay relative to control"}, "[21]": {"target": "Serine/threonine-protein kinase 16 (Homo sapiens) (UniProt O75716)", "test": "Inhibition of tracer 236 binding to recombinant human His-tagged full length STK16 expressed in baculovirus expression system at 10 uM incubated for 60 mins by Lanthascreen assay relative to control"}, "[22]": {"target": "Tyrosine-protein kinase TXK (Homo sapiens) (UniProt P42681)", "test": "Inhibition of recombinant human N-terminal GST-tagged TXK (260 to 527 residues) expressed in baculovirus expression system using Tyr 06 as substrate at 10 uM incubated for 60 mins by Z'-Lyte assay relative to control"}, "[23]": {"target": "Mitogen-activated protein kinase kinase kinase 20 (Homo sapiens) (UniProt Q9NYL2)", "test": "Inhibition of tracer 178 binding to recombinant human N-terminal GST-tagged full length ZAK expressed in baculovirus expression system at 10 uM incubated for 60 mins by Lanthascreen assay relative to control"}, "[24]": {"target": "Death-associated protein kinase 3 (Homo sapiens) (UniProt O43293)", "test": "Inhibition of recombinant human GST-tagged full length ZIPK expressed in baculovirus expression system using Ser/Thr 13 as substrate at 10 uM incubated for 60 mins by Z'-Lyte assay relative to control"}}, "data": [{"compound": "CN1C(=O)[C@@H](NC(=O)c2n[nH]c3ncc(C(F)(F)C(F)(F)F)cc23)COc2ccccc21", "values": [{"measurement": "inhibition", "setting": "[1]", "value": 2, "unit": "%"}, {"measurement": "inhibition", "setting": "[2]", "value": 7.5, "unit": "%"}, {"measurement": "inhibition", "setting": "[3]", "value": 5, "unit": "%"}, {"measurement": "inhibition", "setting": "[4]", "value": 4.5, "unit": "%"}, {"measurement": "inhibition", "setting": "[5]", "value": 2, "unit": "%"}, {"measurement": "inhibition", "setting": "[6]", "value": 0, "unit": "%"}, {"measurement": "inhibition", "setting": "[7]", "value": 5, "unit": "%"}, {"measurement": "inhibition", "setting": "[8]", "value": -0.5, "unit": "%"}, {"measurement": "inhibition", "setting": "[9]", "value": 0.5, "unit": "%"}, {"measurement": "inhibition", "setting": "[10]", "value": 5, "unit": "%"}, {"measurement": "inhibition", "setting": "[11]", "value": -5.5, "unit": "%"}, {"measurement": "inhibition", "setting": "[12]", "value": 5, "unit": "%"}, {"measurement": "inhibition", "setting": "[13]", "value": -0.5, "unit": "%"}, {"measurement": "inhibition", "setting": "[14]", "value": 8, "unit": "%"}, {"measurement": "inhibition", "setting": "[15]", "value": 4, "unit": "%"}, {"measurement": "inhibition", "setting": "[16]", "value": 6, "unit": "%"}, {"measurement": "inhibition", "setting": "[17]", "value": -6, "unit": "%"}, {"measurement": "inhibition", "setting": "[18]", "value": 2, "unit": "%"}, {"measurement": "inhibition", "setting": "[19]", "value": -3, "unit": "%"}, {"measurement": "inhibition", "setting": "[20]", "value": 4, "unit": "%"}, {"measurement": "inhibition", "setting": "[21]", "value": 3, "unit": "%"}, {"measurement": "inhibition", "setting": "[22]", "value": 8.5, "unit": "%"}, {"measurement": "inhibition", "setting": "[23]", "value": 6.5, "unit": "%"}, {"measurement": "inhibition", "setting": "[24]", "value": 7, "unit": "%"}]}]}
